Source: ChEMBL document CHEMBL4800727 (2021)

Assays:
[1] = target: Glucocorticoid receptor (Homo sapiens) (UniProt P04150); assay: hGR Cerep panel; conditions: Compound concentration 10.0 uM
[2] = target: SRSF protein kinase 3 (Homo sapiens) (UniProt Q9UPE1); assay: SFRS protein kinase 3 Millipore kinase panel; conditions: Compound concentration 10.0 uM
[3] = target: Tyrosine-protein kinase ITK/TSK (Homo sapiens) (UniProt Q08881); assay: IL2-inducible T-cell kinase Millipore kinase panel; conditions: Compound concentration 10.0 uM
[4] = target: cAMP and cAMP-inhibited cGMP 3',5'-cyclic phosphodiesterase 10A (Mus musculus) (UniProt Q8CA95)
[5] = target: Homeodomain-interacting protein kinase 2 (Homo sapiens) (UniProt Q9H2X6); assay: homeodomain interacting protein kinase 2 Millipore kinase panel; conditions: Compound concentration 10.0 uM
[6] = target: Prostacyclin receptor (Homo sapiens) (UniProt P43119); assay: hIP1 Cerep panel; conditions: Compound concentration 10.0 uM
[7] = target: High affinity nerve growth factor receptor (Homo sapiens) (UniProt P04629); assay: neurotrophic tyrosine kinase, receptor, type 1 Millipore kinase panel; conditions: Compound concentration 10.0 uM
[8] = target: Mitogen-activated protein kinase kinase kinase kinase 1 (Homo sapiens) (UniProt Q92918); assay: mitogen-activated protein kinase kinase kinase kinase 1 Millipore kinase panel; conditions: Compound concentration 10.0 uM
[9] = target: Neuropeptide Y receptor type 1 (Homo sapiens) (UniProt P25929); assay: hNPY1 Cerep panel; conditions: Compound concentration 10.0 uM
[10] = target: Cholecystokinin receptor type A (Homo sapiens) (UniProt P32238); assay: hCCKA Cerep panel; conditions: Compound concentration 10.0 uM
[11] = target: Serine/threonine-protein kinase 17A (Homo sapiens) (UniProt Q9UEE5); assay: serine/threonine kinase 17a Millipore kinase panel; conditions: Compound concentration 10.0 uM
[12] = target: Fibroblast growth factor receptor 1 (Homo sapiens) (UniProt P11362); assay: fibroblast growth factor receptor 1 Millipore kinase panel; conditions: Compound concentration 10.0 uM
[13] = target: Toll-like receptor 4 (Homo sapiens) (UniProt O00206); assay: Toll like receptor 4 Millipore kinase panel; conditions: Compound concentration 10.0 uM
[14] = target: Death-associated protein kinase 1 (Homo sapiens) (UniProt P53355); assay: death-associated protein kinase 1 Millipore kinase panel; conditions: Compound concentration 10.0 uM
[15] = target: High affinity 3',5'-cyclic-AMP phosphodiesterase 7A (Homo sapiens, UniProt Q13946); assay: hPDE7A1 PDE scan
[16] = target: CDK7/Cyclin H/MNAT1 (Homo sapiens) (UniProt P51946+P50613+P51948); assay: Cyclin-dependent kinase 7 / cyclinH / MAT Millipore kinase panel; assay type: protein-complex assay; conditions: Compound concentration 10.0 uM
[17] = target: Discoidin domain-containing receptor 2 (Homo sapiens) (UniProt Q16832); assay: discoidin domain receptor tyrosine kinase 2 Millipore kinase panel; conditions: Compound concentration 10.0 uM
[18] = target: Serine/threonine-protein kinase Sgk3 (Homo sapiens) (UniProt Q96BR1); assay: serum/glucocorticoid regulated kinase family, member 3 Millipore kinase panel; conditions: Compound concentration 10.0 uM
[19] = target: T1, Muscarinic acetylcholine receptor M4 (Homo sapiens) (UniProt P08173); assay: hM4 Cerep panel; conditions: Compound concentration 10.0 uM
T1 sequence (whole entry): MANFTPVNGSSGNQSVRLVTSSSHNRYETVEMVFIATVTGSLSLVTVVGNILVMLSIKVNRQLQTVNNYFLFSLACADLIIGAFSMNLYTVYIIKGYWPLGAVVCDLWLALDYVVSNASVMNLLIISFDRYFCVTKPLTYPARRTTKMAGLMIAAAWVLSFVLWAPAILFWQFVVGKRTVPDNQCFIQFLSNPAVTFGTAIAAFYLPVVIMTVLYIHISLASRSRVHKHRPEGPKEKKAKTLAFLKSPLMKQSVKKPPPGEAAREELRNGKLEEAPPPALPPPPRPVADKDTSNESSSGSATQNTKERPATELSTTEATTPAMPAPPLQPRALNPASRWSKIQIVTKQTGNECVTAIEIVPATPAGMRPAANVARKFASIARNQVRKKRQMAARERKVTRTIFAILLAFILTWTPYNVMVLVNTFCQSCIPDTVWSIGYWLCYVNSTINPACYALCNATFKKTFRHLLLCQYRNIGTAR

[20] = target: Rod cGMP-specific 3',5'-cyclic phosphodiesterase subunit alpha (Homo sapiens, UniProt P16499); assay: hPDE6AB PDE scan
[21] = target: Tyrosine-protein kinase SYK (Homo sapiens) (UniProt P43405); assay: spleen tyrosine kinase Millipore kinase panel; conditions: Compound concentration 10.0 uM
[22] = target: cGMP-inhibited 3',5'-cyclic phosphodiesterase 3A (Homo sapiens, UniProt Q14432); assay: hPDE3A PDE scan
[23] = target: Nociceptin receptor (Homo sapiens) (UniProt P41146); assay: hORL1 Cerep panel; conditions: Compound concentration 10.0 uM
[24] = target: Rhodopsin kinase GRK7 (Homo sapiens) (UniProt Q8WTQ7); assay: G protein-coupled receptor kinase 7 Millipore kinase panel; conditions: Compound concentration 10.0 uM
[25] = target: Fibroblast growth factor receptor 2 (Homo sapiens) (UniProt P21802); assay: fibroblast growth factor receptor 2 Millipore kinase panel; conditions: Compound concentration 10.0 uM
Homo sapiens = organism: Homo sapiens; assay: hSigma Cerep panel; conditions: Compound concentration 10.0 uM
Rattus norvegicus = organism: Rattus norvegicus; assay: rBZD Cerep panel; conditions: Compound concentration 10.0 uM
[26] = target: T2, 5-hydroxytryptamine receptor 2C (Homo sapiens) (UniProt P28335); assay: h5HT2C Cerep panel; conditions: Compound concentration 10.0 uM
T2 sequence (whole entry): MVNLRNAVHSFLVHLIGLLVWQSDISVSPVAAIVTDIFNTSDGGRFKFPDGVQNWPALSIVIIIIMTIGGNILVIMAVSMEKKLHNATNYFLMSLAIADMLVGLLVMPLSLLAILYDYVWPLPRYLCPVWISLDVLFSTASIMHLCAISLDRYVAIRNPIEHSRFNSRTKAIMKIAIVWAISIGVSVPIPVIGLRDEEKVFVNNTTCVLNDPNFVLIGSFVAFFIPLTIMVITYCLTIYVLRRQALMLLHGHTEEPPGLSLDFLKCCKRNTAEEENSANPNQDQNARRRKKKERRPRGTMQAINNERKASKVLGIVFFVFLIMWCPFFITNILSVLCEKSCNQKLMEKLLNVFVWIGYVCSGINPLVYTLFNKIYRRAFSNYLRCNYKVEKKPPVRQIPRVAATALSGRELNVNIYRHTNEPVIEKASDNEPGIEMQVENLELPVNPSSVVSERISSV

[27] = target: Delta-type opioid receptor (Homo sapiens) (UniProt P41143); assay: hOP1 Cerep panel; conditions: Compound concentration 10.0 uM
[28] = target: Mitogen-activated protein kinase 13 (Homo sapiens) (UniProt O15264); assay: mitogen-activated protein kinase 13 Millipore kinase panel; conditions: Compound concentration 10.0 uM
[29] = target: Tyrosine-protein kinase TXK (Homo sapiens) (UniProt P42681); assay: TXK tyrosine kinase Millipore kinase panel; conditions: Compound concentration 10.0 uM
[30] = target: B2 bradykinin receptor (Homo sapiens) (UniProt P30411); assay: hBK2 Cerep panel; conditions: Compound concentration 10.0 uM
[31] = target: RAC-alpha serine/threonine-protein kinase (Homo sapiens) (UniProt P31749); assay: v-akt murine thymoma viral oncogene homolog 1 Millipore kinase panel; conditions: Compound concentration 10.0 uM
[32] = target: Protein kinase C beta type (Homo sapiens) (UniProt P05771); assay: protein kinase C, beta 1 Millipore kinase panel; conditions: Compound concentration 10.0 uM
[33] = target: Mitogen-activated protein kinase 11 (Homo sapiens) (UniProt Q15759); assay: mitogen-activated protein kinase 11 Millipore kinase panel; conditions: Compound concentration 10.0 uM
[34] = target: Focal adhesion kinase 1 (Homo sapiens) (UniProt Q05397); assay: PTK2 protein tyrosine kinase 2 Millipore kinase panel; conditions: Compound concentration 10.0 uM
[35] = target: Translocator protein (Homo sapiens) (UniProt P30536); assay: hTSPO Cerep panel; conditions: Compound concentration 10.0 uM
[36] = target: cAMP and cAMP-inhibited cGMP 3',5'-cyclic phosphodiesterase 10A (Homo sapiens, UniProt Q9Y233); assay: In vitro assay with human PDE10A

Sequence of Fibroblast growth factor receptor 2 (Homo sapiens) (P21802 22-821 limits assumed): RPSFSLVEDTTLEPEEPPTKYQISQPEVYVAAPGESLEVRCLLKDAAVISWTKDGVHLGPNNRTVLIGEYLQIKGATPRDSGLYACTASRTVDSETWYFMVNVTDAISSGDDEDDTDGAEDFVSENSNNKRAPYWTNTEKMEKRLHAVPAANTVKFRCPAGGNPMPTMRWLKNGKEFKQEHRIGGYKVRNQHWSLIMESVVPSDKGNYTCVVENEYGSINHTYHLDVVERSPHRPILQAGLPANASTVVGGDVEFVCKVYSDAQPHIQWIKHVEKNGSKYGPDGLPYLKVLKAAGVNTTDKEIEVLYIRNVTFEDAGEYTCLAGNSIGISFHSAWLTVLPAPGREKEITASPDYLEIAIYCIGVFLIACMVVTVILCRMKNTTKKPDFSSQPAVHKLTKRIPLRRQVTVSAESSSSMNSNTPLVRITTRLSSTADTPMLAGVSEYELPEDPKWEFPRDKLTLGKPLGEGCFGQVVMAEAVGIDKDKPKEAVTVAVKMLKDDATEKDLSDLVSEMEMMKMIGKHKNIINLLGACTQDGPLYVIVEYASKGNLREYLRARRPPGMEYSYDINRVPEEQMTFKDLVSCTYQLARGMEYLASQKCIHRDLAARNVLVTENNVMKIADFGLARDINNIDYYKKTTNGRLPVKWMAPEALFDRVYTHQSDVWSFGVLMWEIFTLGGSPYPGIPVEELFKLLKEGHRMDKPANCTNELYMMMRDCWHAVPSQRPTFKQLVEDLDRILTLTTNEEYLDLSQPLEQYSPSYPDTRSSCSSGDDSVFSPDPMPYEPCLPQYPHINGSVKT
Sequence of High affinity nerve growth factor receptor (Homo sapiens) (P04629 33-796 limits assumed): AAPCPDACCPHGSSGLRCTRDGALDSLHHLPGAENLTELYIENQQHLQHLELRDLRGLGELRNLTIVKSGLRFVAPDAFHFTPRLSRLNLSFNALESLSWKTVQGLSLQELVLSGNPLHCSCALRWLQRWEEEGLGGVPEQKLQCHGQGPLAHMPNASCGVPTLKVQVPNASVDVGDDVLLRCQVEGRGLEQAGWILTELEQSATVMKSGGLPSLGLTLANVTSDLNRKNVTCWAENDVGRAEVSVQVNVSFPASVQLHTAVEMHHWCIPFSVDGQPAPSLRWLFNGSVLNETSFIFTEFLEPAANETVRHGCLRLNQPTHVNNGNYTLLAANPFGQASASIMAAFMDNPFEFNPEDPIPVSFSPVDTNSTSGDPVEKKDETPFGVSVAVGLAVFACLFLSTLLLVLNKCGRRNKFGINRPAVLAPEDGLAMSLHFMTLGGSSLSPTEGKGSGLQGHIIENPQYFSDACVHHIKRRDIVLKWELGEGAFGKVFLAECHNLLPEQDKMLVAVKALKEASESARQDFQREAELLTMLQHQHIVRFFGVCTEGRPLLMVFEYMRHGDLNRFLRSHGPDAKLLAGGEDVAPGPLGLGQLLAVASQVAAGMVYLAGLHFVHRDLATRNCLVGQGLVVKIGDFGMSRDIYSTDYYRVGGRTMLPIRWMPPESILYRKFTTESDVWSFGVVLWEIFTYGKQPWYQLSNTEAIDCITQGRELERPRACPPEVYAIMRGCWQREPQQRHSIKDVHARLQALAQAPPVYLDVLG
Sequence of cGMP-inhibited 3',5'-cyclic phosphodiesterase 3A (Q14432 whole entry): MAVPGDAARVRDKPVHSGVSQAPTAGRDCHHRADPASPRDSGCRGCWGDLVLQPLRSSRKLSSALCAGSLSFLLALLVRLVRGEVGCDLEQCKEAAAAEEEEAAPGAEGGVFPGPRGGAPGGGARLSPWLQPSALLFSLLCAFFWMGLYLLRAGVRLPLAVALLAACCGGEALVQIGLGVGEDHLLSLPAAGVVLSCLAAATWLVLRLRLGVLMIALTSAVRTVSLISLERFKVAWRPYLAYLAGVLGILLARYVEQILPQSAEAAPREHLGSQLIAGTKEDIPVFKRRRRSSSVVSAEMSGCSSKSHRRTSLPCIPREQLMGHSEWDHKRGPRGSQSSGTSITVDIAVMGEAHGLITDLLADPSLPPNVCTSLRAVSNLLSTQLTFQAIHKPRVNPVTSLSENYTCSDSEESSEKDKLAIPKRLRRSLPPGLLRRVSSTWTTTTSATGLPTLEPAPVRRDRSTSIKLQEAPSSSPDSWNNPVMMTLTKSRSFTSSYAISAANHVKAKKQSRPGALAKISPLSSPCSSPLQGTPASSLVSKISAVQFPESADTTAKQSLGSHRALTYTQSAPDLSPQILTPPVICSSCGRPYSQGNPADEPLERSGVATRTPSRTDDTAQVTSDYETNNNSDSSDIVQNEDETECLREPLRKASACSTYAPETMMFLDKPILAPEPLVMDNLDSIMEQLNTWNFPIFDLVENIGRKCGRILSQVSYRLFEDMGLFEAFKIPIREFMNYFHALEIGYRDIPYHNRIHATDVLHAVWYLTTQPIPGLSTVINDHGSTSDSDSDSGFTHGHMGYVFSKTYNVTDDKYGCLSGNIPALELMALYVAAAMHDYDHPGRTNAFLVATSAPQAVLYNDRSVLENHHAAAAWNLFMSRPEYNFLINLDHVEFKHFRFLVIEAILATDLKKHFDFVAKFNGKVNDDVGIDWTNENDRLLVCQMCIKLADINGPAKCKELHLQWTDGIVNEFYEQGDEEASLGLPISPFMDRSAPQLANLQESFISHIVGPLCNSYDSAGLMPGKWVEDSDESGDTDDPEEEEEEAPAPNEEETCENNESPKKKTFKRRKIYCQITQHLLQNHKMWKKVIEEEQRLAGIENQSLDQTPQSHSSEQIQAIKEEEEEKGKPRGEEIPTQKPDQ
Sequence of Tyrosine-protein kinase TXK (Homo sapiens) (P42681 whole entry): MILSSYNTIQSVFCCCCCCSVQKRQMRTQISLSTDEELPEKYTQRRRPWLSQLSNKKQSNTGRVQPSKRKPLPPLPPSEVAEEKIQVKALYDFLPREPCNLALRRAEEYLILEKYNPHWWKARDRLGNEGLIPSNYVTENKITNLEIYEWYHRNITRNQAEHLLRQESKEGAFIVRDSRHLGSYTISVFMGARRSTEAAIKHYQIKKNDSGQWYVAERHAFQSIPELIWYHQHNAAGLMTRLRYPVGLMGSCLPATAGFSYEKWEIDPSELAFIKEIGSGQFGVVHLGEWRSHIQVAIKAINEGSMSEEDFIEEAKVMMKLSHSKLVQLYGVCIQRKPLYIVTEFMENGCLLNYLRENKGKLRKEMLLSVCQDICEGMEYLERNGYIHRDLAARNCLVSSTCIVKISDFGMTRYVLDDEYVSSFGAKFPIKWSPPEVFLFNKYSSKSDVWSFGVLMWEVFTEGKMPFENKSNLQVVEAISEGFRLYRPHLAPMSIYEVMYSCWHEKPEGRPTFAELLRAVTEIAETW
Sequence of Neuropeptide Y receptor type 1 (Homo sapiens) (P25929 whole entry): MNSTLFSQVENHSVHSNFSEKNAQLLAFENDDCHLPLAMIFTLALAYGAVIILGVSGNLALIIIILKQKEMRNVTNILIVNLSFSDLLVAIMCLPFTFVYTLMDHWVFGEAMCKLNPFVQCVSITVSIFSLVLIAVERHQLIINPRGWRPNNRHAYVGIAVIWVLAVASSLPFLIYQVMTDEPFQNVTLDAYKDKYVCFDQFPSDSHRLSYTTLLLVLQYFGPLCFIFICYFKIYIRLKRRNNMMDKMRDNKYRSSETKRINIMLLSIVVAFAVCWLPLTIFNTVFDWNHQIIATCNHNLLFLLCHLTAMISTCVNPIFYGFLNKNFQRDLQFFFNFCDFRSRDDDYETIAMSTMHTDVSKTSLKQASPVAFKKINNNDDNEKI
Sequence of Death-associated protein kinase 1 (Homo sapiens) (P53355 whole entry, looked up): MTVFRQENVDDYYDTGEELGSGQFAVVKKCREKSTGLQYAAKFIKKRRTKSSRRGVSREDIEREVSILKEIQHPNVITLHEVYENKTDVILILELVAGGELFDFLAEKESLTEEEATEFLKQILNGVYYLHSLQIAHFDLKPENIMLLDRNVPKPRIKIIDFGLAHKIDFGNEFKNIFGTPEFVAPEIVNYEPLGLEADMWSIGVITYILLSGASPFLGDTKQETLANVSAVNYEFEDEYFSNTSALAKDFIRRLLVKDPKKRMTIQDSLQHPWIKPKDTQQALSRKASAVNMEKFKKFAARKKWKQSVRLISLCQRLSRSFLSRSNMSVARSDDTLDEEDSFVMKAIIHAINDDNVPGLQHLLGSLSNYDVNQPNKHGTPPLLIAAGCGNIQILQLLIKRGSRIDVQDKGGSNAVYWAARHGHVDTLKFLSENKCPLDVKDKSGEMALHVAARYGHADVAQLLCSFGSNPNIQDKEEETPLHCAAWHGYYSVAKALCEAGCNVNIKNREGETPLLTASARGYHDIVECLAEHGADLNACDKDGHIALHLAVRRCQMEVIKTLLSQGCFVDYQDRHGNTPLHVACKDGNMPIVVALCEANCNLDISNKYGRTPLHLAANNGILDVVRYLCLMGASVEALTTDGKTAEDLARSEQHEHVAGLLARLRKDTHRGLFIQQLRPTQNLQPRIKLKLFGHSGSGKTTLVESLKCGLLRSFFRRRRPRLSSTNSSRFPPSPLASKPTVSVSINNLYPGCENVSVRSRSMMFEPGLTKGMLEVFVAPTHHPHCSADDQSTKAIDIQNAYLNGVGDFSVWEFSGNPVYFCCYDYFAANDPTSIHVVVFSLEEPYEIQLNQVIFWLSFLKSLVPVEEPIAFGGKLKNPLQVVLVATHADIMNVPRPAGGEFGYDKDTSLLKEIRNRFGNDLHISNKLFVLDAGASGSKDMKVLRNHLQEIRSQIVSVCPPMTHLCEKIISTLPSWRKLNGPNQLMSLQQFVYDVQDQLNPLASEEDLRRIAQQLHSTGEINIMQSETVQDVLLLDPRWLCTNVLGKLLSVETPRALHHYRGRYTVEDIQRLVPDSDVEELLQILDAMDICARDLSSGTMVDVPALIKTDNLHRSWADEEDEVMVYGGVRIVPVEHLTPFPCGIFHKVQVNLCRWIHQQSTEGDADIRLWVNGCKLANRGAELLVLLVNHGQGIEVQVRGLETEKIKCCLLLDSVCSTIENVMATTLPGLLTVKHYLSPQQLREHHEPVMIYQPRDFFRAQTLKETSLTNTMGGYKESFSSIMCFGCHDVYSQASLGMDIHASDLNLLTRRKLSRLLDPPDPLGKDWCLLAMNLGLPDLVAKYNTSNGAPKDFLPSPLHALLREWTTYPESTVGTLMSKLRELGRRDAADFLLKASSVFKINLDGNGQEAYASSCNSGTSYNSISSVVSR

Structure (SMILES): COCCc1ccc(-c2c(C)nc3c(N4CCOCC4)ccnn23)cn1 [JNJ-42396302]
- effect [1]: 1.9%
- inhibition [2]: -6%
- inhibition [3]: 1%
- Increase in cAMP [4]: 10 fold
- inhibition [5]: 0%
- effect [6]: -23.4%
- inhibition [7]: 7%
- inhibition [8]: 5.53%
- effect [9]: 0.15%
- effect [10]: -19.6%
- inhibition [11]: -9%
- inhibition [12]: 8%
- inhibition [13]: -5.24%
- inhibition [14]: -2%
- Ki [15]: 23 µM
- inhibition [16]: 1%
- inhibition [17]: -5%
- inhibition [18]: 1%
- effect [19]: -3.05%
- Ki [20]: 85 µM
- inhibition [21]: -7%
- Ki [22]: 49 µM
- effect [23]: 2.15%
- inhibition [24]: 6%
- inhibition [25]: -5%
- effect (Homo sapiens): 1.55%
- effect (Rattus norvegicus): 41.5%
- effect [26]: -1.95%
- effect [27]: 8.95%
- inhibition [28]: 4%
- inhibition [29]: 6%
- effect [30]: 7.1%
- inhibition [31]: 35%
- inhibition [32]: -5%
- inhibition [33]: -2%
- inhibition [34]: -2%
- effect [35]: 2.8%

Structure (SMILES): c1ccc(C2CCN(c3cnc4c(N5CCOCC5)nccn34)CC2)cc1
- IC50 [36]: > 10 µM (not active)
